Assay results from patent US20220081433A1, “CYCLIC SULFAMIDE COMPOUNDS FOR TREATMENT OF HBV” (Assembly Biosciences, Inc., priority 2018, published 2022).
pEC50: −log10 of the molar value.

System: HBV
Assay: Activity of test compounds on viral production from HepAD38 cells (viral load by qPCR of HBV core sequence)
Assay type: cell-based
Conditions: Hepatitis B virus, 120 h, 5 days, supernatant HBV DNA by qPCR vs DMSO control, read-out: viral load lowering EC50 (Activity)
Procedure: Assay Measuring Activity of Test Compounds on Viral Production from HepAD38 Cells
HepAD38 cells grown in a T-150 flask (Corning, cat#: 430825) with Growth Medium (DMEM/F12 (1:1) (Hyclone, cat#: SH30023.02), 1× Pen/Strep (Invitrogen, cat#: 15140-122), 10% FBS (Tissue Culture Biologics, cat#: 101), 250 μg/mL G418 (Alfa Aesar, cat#: J62671), 1 μg/mL Tetracycline (Teknova, cat#: T3320)) were detached with 0.25% trypsin-EDTA (Invitrogen, cat#: 25200-056). Tetracycline-free treatment medium (15 mL DMEM/F12 (1:1) 1×Pen/step, with 2% FBS, Tet-system approved (Clontech, cat#: 631106) were then added to mix, transferred into a 50 ml conical tube (Falcon, cat#: 21008-918) and spun at 1300 rpm for 5 min. Pelleted cells were then re-suspended/washed with 50 mL of 1×DPBS (Invitrogen, cat#: 14190-136) 2 times and 50 mL treatment medium twice. HepAD38 cells were then re-suspended with 10 mL of treatment medium, syringed and counted. Wells of 96-well clear bottom TC plate (Corning, cat#: 3904) were seeded at 50,000 cells/well in 180 μL of treatment medium, and 20 μL of either 10% DMSO (Sigma, cat#: D4540) as controls or a 10× solution of test compounds in 10% DMSO in treatment media was added for a final compound concentration starting at 10 μM, and plates were incubated in 5% CO2 incubator at 37° C. for 5 days.
Subsequently viral load production was assayed by quantitative PCR (qPCR) of the HBV core sequence. PCR reaction mixture containing forward primers HBV-f 5′-CTGTGCCTTGGGTGGCTTT-3′ (IDT DNA), Reverse primers HBV-r 5′-[…]-3′ (IDT DNA), Fluorescent TaqMan™ Probes HBV-probe 5′-FAM/AGCTCCAAA/ZEN/[…]/3IABkFQ-3′ (IDT DNA), 10 μL/well of PerfeCTa® qPCR ToughMix® (Quanta Biosciences, Cat#: 95114-05K), and 6 μL/well of DEPC water (Alfa Aesar, cat#: J62087) was prepared. Four μL of supernatant was added to 16 μL of the reaction mixture in a qPCR plate (Applied Biosytems, Cat#: 4309849), sealed with a film (Applied Biosystems, Cat#: 4311971), centrifuged for a few seconds, and subsequently run on an Applied Biosystems VIIA7. The PCR mixture was incubated at 45° C. for 5 min, then 95° C. for 10 min, followed by 40 cycles of 10 seconds at 95° C. and 20 seconds at 60° C. Viral load was quantified against known HBV DNA standards by using ViiA™ 7 Software. Viral load in the supernatant from wells with treated cells were compared against viral load in supernatant from DMSO control wells (≥ 3 per plate). Cell viability assay was performed with CellTiter-Glo Luminescent Cell Viability Assay (Promega, cat#: G7573) with modification. Mixed appropriate amount of CellTiter-Glo (CTG) 1×DPBS in a 1:1 ratio, added 100 uL of the mixture to each well followed completely removal of all supernatant in each well without touching cell surface. Incubated the plate at room temperature for 10 min on an orbital shaker, and then read the plate with a plate reader (TECAN M1000 or Envision). EC50 or CC50 values were calculated through curve-fitting of the four-parameter nonlinear-logistic-regression model (GraphPad Prism or Dotmatics). CC50 values were all >10 μM.

SMILES	pEC50
CN1[C@H](C(=O)Nc2ccc(F)c(Cl)c2)C[C@H](c2cccc(-c3ccc(F)cc3Cl)c2)NS1(=O)=O (single isomer, unassigned) [5-Isomer I]	> 6.00
Cc1nn(C)cc1-c1cccc(C2CC(C(=O)Nc3ccc(F)c(Cl)c3)N(C)S(=O)(=O)N2)c1 (stereo not shown) [Example 16, N-(3-Chloro-4-fluorophenyl)-5-(3-(1,3-dimethyl-1H-pyrazol-4-yl)phenyl)-2-methyl-1,2,6-thiadiazinane-3-carboxamide 1,1-dioxide]	> 6.00
Cc1nnc(C2CC(C(=O)Nc3ccc(F)c(Cl)c3)N(C)S(=O)(=O)N2)o1 (stereo not shown) [Example 29, N-(3-Chloro-4-fluorophenyl)-2-methyl-5-(5-methyl-1,3,4-oxadiazol-2-yl)-1,2,6-thiadiazinane-3-carboxamide 1,1-dioxide]	5.30 to 6.00
CN1[C@H](C(=O)Nc2ccc(F)c(Cl)c2)C[C@H](c2cccc(-c3cccc(C(=O)O)c3)c2)NS1(=O)=O (single isomer, unassigned) [19-Isomer I]	> 6.00
CN1[C@@H](C(=O)Nc2ccc(F)c(Cl)c2)C[C@@H](c2cccc(-c3cccc(C(F)(F)F)c3)c2)NS1(=O)=O (single isomer, unassigned) [8-Isomer II]	5.00 to 5.30
CN1[C@@H](C(=O)Nc2ccc(F)c(Cl)c2)C[C@@H](c2cccc(-c3ccccc3)c2)NS1(=O)=O (single isomer, unassigned) [2-Isomer II]	5.00 to 5.30
CN1CC=C(c2cccc(C3CC(C(=O)Nc4ccc(F)c(Cl)c4)N(C)S(=O)(=O)N3)c2)CC1 (stereo not shown) [Example 18, N-(3-Chloro-4-fluorophenyl)-2-methyl-5-(3-(1-methyl-1,2,3,6-tetrahydropyridin-4-yl)phenyl)-1,2,6-thiadiazinane-3-carboxamide 1,1-dioxide]	> 6.00
CN1[C@@H](C(=O)Nc2ccc(F)c(Cl)c2)C[C@@H](c2cccc(N3CCOCC3)c2)NS1(=O)=O (single isomer, unassigned) [24-Isomer II]	5.00 to 5.30
CN1C(C(=O)Nc2ccc(F)c(Cl)c2)CC(c2cccc(-c3ccc(Cl)c(Cl)c3)c2)NS1(=O)=O (stereo not shown) [Example 9, N-(3-Chloro-4-fluorophenyl)-5-(3′,4′-dichloro-[1,1′-biphenyl]-3-yl)-2-methyl-1,2,6-thiadiazinane-3-carboxamide 1,1-dioxide]	5.30 to 6.00
Cc1cc(-c2cccc([C@H]3C[C@@H](C(=O)Nc4ccc(F)c(Cl)c4)N(C)S(=O)(=O)N3)c2)ccn1 (single isomer, unassigned) [3-Isomer I]	> 6.00
COc1ccc(-c2cccc(C3CC(C(=O)Nc4ccc(F)c(Cl)c4)N(C)S(=O)(=O)N3)c2)cc1C(F)(F)F (stereo not shown) [Example 14, N-(3-Chloro-4-fluorophenyl)-5-(4′-methoxy-3′-(trifluoromethyl)-[1,1′-biphenyl]-3-yl)-2-methyl-1,2,6-thiadiazinane-3-carboxamide 1,1-dioxide]	5.30 to 6.00
Cc1ccc(-c2cccc(C3CC(C(=O)Nc4ccc(F)c(Cl)c4)N(C)S(=O)(=O)N3)c2)c(Cl)c1 (stereo not shown) [Example 6, 5-(2′-Chloro-4′-methyl-[1,1′-biphenyl]-3-yl)-N-(3-Chloro-4-fluorophenyl)-2-methyl-1,2,6-thiadiazinane-3-carboxamide 1,1-dioxide]	> 6.00
CN1C(C(=O)Nc2ccc(F)c(Cl)c2)CC(c2ncc(-c3ccccc3)n2C)NS1(=O)=O (stereo not shown) [Example 34, N-(3-Chloro-4-fluorophenyl)-2-methyl-5-(1-methyl-5-phenyl-1H-imidazol-2-yl)-1,2,6-thiadiazinane-3-carboxamide 1,1-dioxide]	5.00 to 5.30
CN1[C@@H](C(=O)Nc2ccc(F)c(Cl)c2)C[C@@H](c2cccc(-c3ccc(F)cc3Cl)c2)NS1(=O)=O (single isomer, unassigned) [5-Isomer II]	5.30 to 6.00
CN1C(C(=O)Nc2ccc(F)c(Cl)c2)CC(c2cccc(-c3ccccn3)c2)NS1(=O)=O (stereo not shown) [Example 22, N-(3-Chloro-4-fluorophenyl)-2-methyl-5-(3-(pyridin-2-yl)phenyl)-1,2,6-thiadiazinane-3-carboxamide 1,1-dioxide]	> 6.00
CN1[C@@H](C(=O)Nc2ccc(F)c(Cl)c2)C[C@@H](c2cccc(-n3ccnc3)c2)NS1(=O)=O (single isomer, unassigned) [27-Isomer II]	5.00 to 5.30
CN1C(C(=O)Nc2ccc(F)c(Cl)c2)CC(c2cccc(C3=CCOCC3)c2)NS1(=O)=O (stereo not shown) [Example 11, N-(3-Chloro-4-fluorophenyl)-5-(3-(3,6-dihydro-2H-pyran-4-yl)phenyl)-2-methyl-1,2,6-thiadiazinane-3-carboxamide 1,1-dioxide]	> 6.00
CC(C)c1ccc(-c2cccc([C@H]3C[C@@H](C(=O)Nc4ccc(F)c(Cl)c4)N(C)S(=O)(=O)N3)c2)cc1 (single isomer, unassigned) [7-Isomer I]	> 6.00
CN1C(C(=O)Nc2ccc(F)c(Cl)c2)CC(c2cccc(C3CC3)c2)NS1(=O)=O (stereo not shown) [Example 13, N-(3-Chloro-4-fluorophenyl)-5-(3-cyclopropylphenyl)-2-methyl-1,2,6-thiadiazinane-3-carboxamide 1,1-dioxide]	> 6.00
CN1C(C(=O)Nc2ccc(F)c(Cl)c2)CC(c2n[nH]c(=O)n2-c2ccccc2)NS1(=O)=O (stereo not shown) [Example 37, N-(3-Chloro-4-fluorophenyl)-2-methyl-5-(5-oxo-4-phenyl-4,5-dihydro-1H-1,2,4-triazol-3-yl)-1,2,6-thiadiazinane-3-carboxamide 1,1-dioxide]	5.30 to 6.00
CN1C(C(=O)Nc2ccc(F)c(Cl)c2)CC(c2cccc(-c3ccc(C#N)cc3)c2)NS1(=O)=O (stereo not shown) [Example 4, N-(3-Chloro-4-fluorophenyl)-5-(4′-cyano-[1,1′-biphenyl]-3-yl)-2-methyl-1,2,6-thiadiazinane-3-carboxamide 1,1-dioxide]	> 6.00
CN1C(C(=O)Nc2ccc(F)c(Cl)c2)CC(c2nnc(Cc3ccccc3)n2C)NS1(=O)=O (stereo not shown) [Example 33, 5-(5-Benzyl-4-methyl-4H-1,2,4-triazol-3-yl)-N-(3-chloro-4-fluorophenyl)-2-methyl-1,2,6-thiadiazinane-3-carboxamide 1,1-dioxide]	5.00 to 5.30
CC(C)c1ccc(-c2cccc(C3CC(C(=O)Nc4ccc(F)c(Cl)c4)N(C)S(=O)(=O)N3)c2)cc1 (stereo not shown) [Example 7, N-(3-Chloro-4-fluorophenyl)-5-(4′-isopropyl-[1,1′-biphenyl]-3-yl)-2-methyl-1,2,6-thiadiazinane-3-carboxamide 1,1-dioxide]	> 6.00
CN1[C@@H](C(=O)Nc2ccc(F)c(Cl)c2)C[C@@H](c2cccc(-c3ccc(C#N)cc3)c2)NS1(=O)=O (single isomer, unassigned) [4-Isomer II]	5.30 to 6.00
Cc1cc(-c2cccc([C@@H]3C[C@H](C(=O)Nc4ccc(F)c(Cl)c4)N(C)S(=O)(=O)N3)c2)ccn1 (single isomer, unassigned) [3-Isomer II]	5.00 to 5.30
CC(C)c1ccc(-c2cccc([C@@H]3C[C@H](C(=O)Nc4ccc(F)c(Cl)c4)N(C)S(=O)(=O)N3)c2)cc1 (single isomer, unassigned) [7-Isomer II]	5.30 to 6.00
CN1[C@@H](C(=O)Nc2ccc(F)c(Cl)c2)C[C@@H](c2cccc(-c3cccc(C(=O)O)c3)c2)NS1(=O)=O (single isomer, unassigned) [19-Isomer II]	5.00 to 5.30
CN1[C@H](C(=O)Nc2ccc(F)c(Cl)c2)C[C@H](c2cccc(-c3ccc(C#N)cc3)c2)NS1(=O)=O (single isomer, unassigned) [4-Isomer I]	> 6.00
